# Source: US8841264B2, “Compositions” (DSM IP Assets B.V., priority 2006, dated 2014)
# Read-outs that look alike come from different tables or passages of the source.
# Assays:
# [1] = system: PGE2 production in RAW267.7 macrophages; assay: Inhibition of PGE2 production in LPS-activated macrophages (EIA); format: cell-based, murine
# Description: (§1) The anti-inflammatory effects combinations of OH-tyrosol or oleuropein and representatives of other groups of natural substances (isoflavones, catechins, phtalides, hydroxylated biphenyls) were evaluated in activated macrophages by determining the inhibition of the synthesis of nitric oxide and/or pro-inflammatory prostaglandins (PG). PGE2 plays a critical role in the inflammation process, while nitric oxide (NO) is a hallmark of inflammation in various chronic inflammatory diseases including various forms of arthritis, gastro-intestinal diseases and metabolic syndrome.
# (§2) The anti inflammatory effect of compounds was tested in cellular assays using a murine macrophage indicator cell line, RAW267.7, which was purchased from American Type Culture Collection, (ATCC) and cultured in DMEM according to the protocol provided by ATCC. Cells (˜50,000/well) were seeded into flat-bottomed microtiter plates and cultured for one day. Cells were then starved in complete medium containing 0.25% FCS (D-025). After overnight culture, medium was removed and replaced by 100 μL of D-025 containing the test compounds at twice the final concentration. Subsequently, 100 μL of D-025 containing 2 μg/ml LPS was added (i.e. final LPS concentration of 1 μg/ml) and the cells cultured for 24 hours. Substances were usually tested in a concentration range from 0.2 to 50 μM (or μg/ml in the case of extracts) in two-fold dilution steps. Concentrations of nitrite which was generated from nitric oxide released by cells were determined by the Griess reaction using sodium nitrite as standard (see e.g Imai et al. Biochem Biophys Res Comm, 197, 105 [1993]). Briefly, 50 μl of supernatant was mixed with Griess reagent 1 (25 μL) and Griess reagent 2 (25 μL), centrifuged and the optical density at 540 nm determined. PGE2 secreted into the cell culture medium was determined by EIA obtained from Cayman Chemicals ([…]) and used according to the manufacturer's instructions. IC50 values were calculated using a […] least-square fitting equation [y=A+((B−A)/(1+((C−x)^D))] for best-fit curves (Excel fit software program).
# (§3) In a methodological approach that was similar to that described for Example 1, the synergistic effect of lycopene, resveratrol and OH-tyrosol was tested on the inflammatory response. Dose-dependent effects of each substance on the production of nitric oxide or PGE2 in macrophages were determined.
# [2] = system: nitric oxide production in RAW267.7 macrophages; assay: Inhibition of nitric oxide production in LPS-activated macrophages (Griess reaction); format: cell-based, murine; details: for inhibition at 3.125 µM: 3.125 μmol/L; for inhibition at 12.5 µM / % inhibition of NO production: 12.5 μmol/L; for inhibition at 3.13 µM: 3.13 μmol/L
# Description: as §1, §2, §3
# [3] = Mus musculus, Macrophage, single substance, RAW267.7, LPS 1 μg/ml, 24 hours, read-out: IC50 PGE2
# [4] = Mus musculus, Macrophage, read-out: % inhibition of NO production
# [5] = Mus musculus, Macrophage, single substance, RAW267.7, LPS 1 μg/ml, 24 hours, read-out: IC50 Nitric Oxide
# [6] = Mus musculus, Macrophage, Example 2, read-out: IC50 of pure compound (PGE2 production)
# [7] = Mus musculus, Macrophage, Example 2, read-out: IC50 of pure compound (NO production)
# [8] = Mus musculus, Macrophage, Example 2, read-out: % inhibition of NO production
"IC50 [1, 3]","IC50 [2, 5]","IC50 [1, 6]","IC50 [2, 7]",Compound,"inhibition at 12.5 µM [2, 4]",further results
10 ± 2 µM,15 ± 1 µM,–,–,"CCC/C=C1\OC(=O)C2=C1CCC=C2 [Ligustilide, ligustilide]",38%,"inhibition at 3.125 µM [2, 4]: 28%"
1 ± 0.2 µM,8 ± 1 µM,–,–,"C=CCc1ccc(O)c(-c2ccc(O)c(CC=C)c2)c1 [Honokiol, 3′,5-Diallyl-2,4′-biphenyldiol]",66%,–
24 ± 3 µM,28 ± 2 µM,22.7 µM,24.1 µM,"OCCc1ccc(O)c(O)c1 [OH-Tyrosol, 2-(3,4-dihydroxyphenyl)-ethanol]",–,"% inhibition of NO production [2]: 33%; inhibition at 6.25 µM ([2]; Mus musculus, Macrophage, 6.25 μmol/L, read-out: % inhibition of NO production): 7%; inhibition at 3.13 µM [2, 8]: -4%"

# More lines, now with the values behind:
Compound,"IC50 [1, 3]","IC50 [2, 5]","IC50 [1, 6]","IC50 [2, 7]","inhibition at 12.5 µM [2, 4]",further results
"C/C=C1/[C@H](O[C@@H]2O[C@H](CO)[C@@H](O)[C@H](O)[C@H]2O)OC=C(C(=O)OC)[C@H]1CC(=O)OCCc1ccc(O)c(O)c1 [Oleuropein, oleuropein]",60 ± 10 µM,52 ± 5 µM,–,–,8%,"inhibition at 3.125 µM [2, 4]: 2%"
"CC(C)=CCC/C(C)=C/C=C/C(C)=C/C=C/C(C)=C/C=C/C=C(C)/C=C/C=C(C)/C=C/C=C(\C)CCC=C(C)C [Lycopene (Ly), ψ,ψ carotene]",–,–,> 8 µM,> 8 µM,–,"inhibition at 0.25 µM ([1]; Mus musculus, Macrophage, Example 2, 0.25 μmol/L): -5%; inhibition at 0.5 µM ([2]; Mus musculus, Macrophage, Example 2, 0.5 μmol/L, read-out: % inhibition of NO production): 4%; anti-inflammatory effect (production of nitric oxide or PGE2 in macrophages) ([2]; at <8 μmol/L): no anti-inflammatory effect"
"Oc1ccc(/C=C/c2cc(O)cc(O)c2)cc1 [Resveratrol, (trans)-resveratrol]",24 ± 2 µM,31 ± 2 µM,23.4 µM,19.3 µM,–,"inhibition at 3.13 µM [2, 8]: -2%"
(−)-epigallocatechin gallate [EGCG],–,–,–,–,–,"IC50 ([1]; single substance, RAW267.7, LPS 1 μg/ml, 24 hours, read-out: IC50 PGE2): 35 ± 3 µM; % inhibition of NO production [2]: 12%; IC50 ([2]; single substance, RAW267.7, LPS 1 μg/ml, 24 hours, read-out: IC50 Nitric Oxide): 33 ± 2 µM"
"O=c1c(-c2ccc(O)cc2)coc2cc(O)cc(O)c12 [Genistein, 4′,5,7-trihydroxyisoflavone]",4.6 ± 0.6 µM,37 ± 2 µM,–,–,–,"inhibition at 25 µM ([2]; Mus musculus, Macrophage, 25 μmol/L, read-out: % inhibition of NO production): 40%"
